Series [1] has as its target sRI-sT complex (Enterobacteria phage T4, UniProt P06808+P13304). Description: biochemical. Format: binding.
Series [2] deals with the molecule itself. In words: crystal structure.

sRI-sT complex, sequence (P06808 56-218, one chain of several): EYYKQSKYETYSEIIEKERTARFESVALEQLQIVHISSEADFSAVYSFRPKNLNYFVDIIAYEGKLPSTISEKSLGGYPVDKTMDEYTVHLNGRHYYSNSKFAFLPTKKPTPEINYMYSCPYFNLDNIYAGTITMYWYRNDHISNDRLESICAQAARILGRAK

By Kd is commonly meant the concentration at which binding is half-saturated. With `Nc1nc2c(ncn2[C@@H]2O[C@H](CO)[C@@H](O)[C@H]2O)c(=O)[nH]1` [guanosine], the Kd in series [1] came out at 43 µM.

B1: periplasmic/soluble domain of the antiholin RI (sRI), residues 25-97, with C-terminal histidine tag (domain or fragment, T4 phage, UniProt P13304 25-97, looked up)
chain: NVDPHFDKFMESGIRHVYMLFENKSVESSEQFYSFMRTTYKNDPCSSDFECIERGAEMAQSYARIMNIKLETE
modifications: disulfide bond between Cys69 and Cys75
Broadly, the stoichiometry N is the number of molecules, sites or subunits per partner or assembly. In the case of B1, the “stoichiometry N” value in series [2] worked out at 4.

(Values after paper PMC7394242 (Journal of molecular biology, 2020).)
